Reference: ChEMBL document CHEMBL3137667, “[Drug-induced liver injury; fourteenth updated edition of the bibliographic database of liver injuries and related drugs]” (Gastroenterol Clin Biol, 2004)
Structures can show the parent of a compound that is named as a salt.

Experiments:
[1] = Highest frequency of moderate liver toxicity observed during clinical trials, expressed as a percentage. [column '% BIOL' in source]; conditions: human
[2] = Highest frequency of acute liver toxicity observed during clinical trials, expressed as a percentage. [column '% AIGUE' in source]; conditions: human
[3] = Times to onset, minimal and maximal, observed in the indexed observations. [column 'DELAI' in source]; conditions: human
[4] = human, serum
[5] = human, serum; remark: listed apart in the source
[6] = human
[7] = human; remark: listed apart in the source
[8] = human; remark: listed apart in the source
[9] = human, serum, 4383 h
[10] = human; remark: listed apart in the source
[11] = human; remark: listed apart in the source
[12] = human; remark: listed apart in the source
[13] = human; remark: listed apart in the source
[14] = human; remark: listed apart in the source
[15] = human; remark: listed apart in the source
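For Hepatotoxicity (association with vascular disease) in this document: count of indexed literature references reporting vascular liver injury in humans, e.g. peliosis hepatitis, hepatic veno-occlusive disease or Budd-Chiari syndrome.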
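For Hepatotoxicity (benign tumour) in this document: value is a count of indexed literature references citing a benign tumour confirmed by histopathology.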
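For Hepatotoxicity (choleostasis) in this document: human cholestatic liver injury, shown by histopathology or by peak ALT or AST elevation over alkaline phosphatase ratio below 2, value counts indexed literature reports.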
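For Hepatotoxicity (chronic liver disease) in this document: chronic liver injury confirmed by histopathology or persistently raised serum aminotransferase activity beyond 6 months, value given as the count of indexed literature references.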
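For Hepatotoxicity (cirrhosis) in this document: value is a count of indexed literature references reporting cirrhosis confirmed by histopathology.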
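For Hepatotoxicity (cytolytic) in this document: human cytolytic liver injury, shown by histopathology or by a ratio above 5 of peak ALT or AST elevation to alkaline phosphatase elevation, value counts indexed references.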
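For Hepatotoxicity (granulomatous hepatitis) in this document: value is a count of indexed literature references reporting granulomatous liver disease confirmed by histopathology.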
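For Hepatotoxicity (malignant tumour) in this document: malignant tumour confirmed by histopathology, value gives the count of indexed literature references reporting it.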
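For Hepatotoxicity (severe hepatitis) in this document: human clinical data: severe hepatitis, meaning potentially life-threatening liver failure or clinically observed cases, the value counts how many indexed literature references report it.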
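For Hepatotoxicity (steatosis) in this document: steatosis confirmed by histopathology, value is the count of indexed references.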

Compound	Hepatotoxicity (moderate) [1] [%]	Hepatotoxicity (acute) [2] [%]	Hepatotoxicity (time to onset) [3]	Hepatotoxicity (moderate) [4]	Hepatotoxicity (acute) [5]	Hepatotoxicity (cytolytic) [6]	Hepatotoxicity (choleostasis) [7]	Hepatotoxicity (severe hepatitis) [8]	Hepatotoxicity (chronic liver disease) [9]	Hepatotoxicity (cirrhosis) [10]	Hepatotoxicity (granulomatous hepatitis) [11]	Hepatotoxicity (association with vascular disease) [12]	Hepatotoxicity (steatosis) [13]	Hepatotoxicity (malignant tumour) [14]	Hepatotoxicity (benign tumour) [15]	further results
Clc1ccc2c(c1)C(N1CCNCC1)=Nc1ccccc1O2 [AMOXAPINE]	0	0	4 days - 18 days	2	2	2	0	0	0	0	0	0	0	0	0	–
N#C[C@H](O[C@@H]1O[C@H](CO[C@@H]2O[C@H](CO)[C@@H](O)[C@H](O)[C@H]2O)[C@@H](O)[C@H](O)[C@H]1O)c1ccccc1 [AMYGDALIN]	0	0	2 days	0	0	0	0	1	0	0	0	0	0	0	0	–
C=CCC(C(=O)NC(N)=O)C(C)C (stereo not given) [APRONAL]	0	0	2 days - 2 years	0	2	0	0	0	0	0	2	0	0	0	0	–
[AsH3] [ARSENIC]	–	–	46 years	4	1	–	–	–	1	1	–	0	0	1	0	Hepatotoxicity (moderate) ([1]; Liver): 35.7%; Hepatotoxicity (acute) ([2]; Liver): 47.6%; Hepatotoxicity (cytolytic) ([6]; Liver): 0; Hepatotoxicity (choleostasis) ([7]; Liver): 0; Hepatotoxicity (severe hepatitis) ([8]; Liver): 0; Hepatotoxicity (granulomatous hepatitis) ([11]; Liver): 0
C[C@H]1[C@H](OC(=O)CCC(=O)O)O[C@@H]2O[C@@]3(C)CC[C@H]4[C@H](C)CC[C@@H]1[C@@]24OO3 [ARTESUNATE]	0	6.7	48 days	0	1	1	0	0	0	0	0	0	0	0	0	–
CC(C)NCC(O)COc1ccc(CC(N)=O)cc1 (stereo not given) [ATENOLOL]	10	0	2 days - 9 months	1	2	1	1	0	0	0	0	0	1	0	0	–
CCNc1cccnc1N1CCN(C(=O)c2cc3cc(OC)ccc3[nH]2)CC1 [ATEVIRDINE MESYLATE]	0	6.7	3 weeks	0	1	0	0	0	0	0	0	0	0	0	0	–
C[C@H]1[C@H](NC(=O)/C(=N\OC(C)(C)C(=O)O)c2csc(N)n2)C(=O)N1S(=O)(=O)O [AZTREONAM]	–	–	4 days	104	1	1	0	–	0	0	0	0	0	0	0	Hepatotoxicity (moderate) ([1]; Liver): 60%; Hepatotoxicity (acute) ([2]; Liver): 0%; Hepatotoxicity (severe hepatitis) ([8]; Liver): 0
NCC(CC(=O)O)c1ccc(Cl)cc1 (stereo not given) [BACLOFEN]	0	0	3 weeks - 2 months	1	3	1	1	0	0	0	0	0	0	0	0	–
O=C(O)CCNC(=O)c1ccc(/N=N/c2ccc(O)c(C(=O)O)c2)cc1 [BALSALAZIDE]	0	0	8 days	0	1	0	1	0	0	0	0	0	0	0	0	–
CCOC(=O)C(C)(CC)Oc1ccc(Cc2ccc(Cl)cc2)cc1 (stereo not given) [BECLOBRATE]	1	0	4 months - 6.5 months	1	2	1	0	2	0	0	0	0	0	0	0	–
CCOC(=O)[C@H](CCc1ccccc1)N[C@H]1CCc2ccccc2N(CC(=O)O)C1=O [BENAZEPRIL]	0	0	14 months	0	2	1	0	1	0	0	0	0	0	0	0	–
CC(=O)Nc1ccc(OC(=O)c2ccccc2OC(C)=O)cc1 [BENORILATE]	0	0	3 weeks	0	2	2	0	1	0	0	0	0	0	0	0	–
NC(CO)C(=O)NNCc1ccc(O)c(O)c1O (stereo not given) [BENSERAZIDE]	0	3.3	< 3 months	0	1	0	0	0	0	0	0	0	0	0	0	–
O=C1CN=C(c2ccccc2)c2c(sc3c2CCCC3)N1 [BENTAZEPAM]	0	0	1 month - 6 months	1	2	2	0	0	3	1	0	0	0	0	0	–
